Consider 13 compounds from patent US8318769B2, “Substituted sulfonamide compounds” (Gruenethal GmbH, priority 2008, dated 2012).

In experiment [1] the target is T1, human bradykinin 1 receptor (B1R) (Homo sapiens, UniProt P46663).
T1 construct: expressed in transfected cells
T1 sequence (P46663 1-353): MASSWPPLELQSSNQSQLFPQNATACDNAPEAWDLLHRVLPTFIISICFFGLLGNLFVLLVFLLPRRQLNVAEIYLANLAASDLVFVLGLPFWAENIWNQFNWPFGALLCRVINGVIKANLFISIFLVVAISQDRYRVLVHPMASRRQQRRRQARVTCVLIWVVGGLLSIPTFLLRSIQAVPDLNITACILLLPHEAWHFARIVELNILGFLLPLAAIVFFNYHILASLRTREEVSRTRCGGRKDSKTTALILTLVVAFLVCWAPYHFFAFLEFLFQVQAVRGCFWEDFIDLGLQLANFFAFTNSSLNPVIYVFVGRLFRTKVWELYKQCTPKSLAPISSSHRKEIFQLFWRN
The experiment can be described thus: FLIPR Ca2+ assay, B1R antagonism, human. The format is cell-based. The note with it: 10 μM test substance; CHO K1 cells with human B1R gene (hB1R cells); Lys-Des-Arg9-bradykinin at EC80; % inhibition compared with the maximum achievable inhibition; read-out: B1R antagonism, human [10 μM] % inhibition. The procedure:
The agonistic or antagonistic action of substances can be quantified on the bradykinin 1 receptor (B1R) of the human and rat species with ectopically expressing cell lines (CHO K1 cells) and with the aid of a Ca^2+-sensitive dyestuff (Fluo-4) in a fluorescent imaging plate reader (FLIPR). The figure in % activation is based on the Ca^2+ signal after addition of Lys-Des-Arg^9-bradykinin (0.5 nM) or Des-Arg^9-bradykinin (100 nM). Antagonists lead to a suppression of the Ca^2+ inflow after addition of the agonist. % inhibition compared with the maximum achievable inhibition is stated.
The agonistic or antagonistic action of substances can be determined on the bradykinin 1 receptor (B1R) of the human and rat species with the following assay. In accordance with this assay, the Ca^2+ inflow through the channel is quantified with the aid of a Ca^2+-sensitive dyestuff (type Fluo-4, Molecular Probes Europe BV, Leiden, Holland) in a fluorescent imaging plate reader (FLIPR, Molecular Devices, Sunnyvale, USA).
Chinese hamster ovary cells (CHO K1 cells) transfected stably with the human B1R gene (hB1R cells) or the B1R gene of the rat (rB1R cells) are used. For functional studies, these cells are plated out on black 96-well plates with a clear base (BD Biosciences, Heidelberg, Germany or Greiner, Frickenhausen, Germany) in a density of 20,000-35,000 cells/well. The cells are left overnight at 37° C. and 5% CO2 in culture medium (hB1R cells: Nutrient Mixture Ham's F12, Gibco Invitrogen GmbH, Karlsruhe, Germany or DMEM, Sigma-Aldrich, Taufkirchen, Germany; rB1R cells: D-MEM/F12, Gibco Invitrogen GmbH, Karlsruhe, Germany) with 10 vol. % FBS (foetal bovine serum, Gibco Invitrogen GmbH, Karlsruhe, Germany or PAN Biotech GmbH, Aidenbach, Germany).
On the following day, the cells are loaded for 60 min at 37° C. with 2.13 μM Fluo-4 (Molecular Probes Europe BV, Leiden, Holland) in HBSS buffer (Hank's buffered saline solution, Gibco Invitrogen GmbH, Karlsruhe, Germany) with 2.5 mM probenecid (Sigma-Aldrich, Taufkirchen, Germany) and 10 mM HEPES (Sigma-Aldrich, Taufkirchen, Germany). The plates are then washed 2× with HBSS buffer, and HBSS buffer which additionally contains 0.1% BSA (bovine serum albumin; Sigma-Aldrich, Taufkirchen, Germany), 5.6 mM glucose and 0.05% gelatine (Merck KGaA, Darmstadt, Germany) is added. After a further incubation of 20 minutes at room temperature, the plates are inserted into the FLIPR for the Ca^2+ measurement.
Alternatively, the plates are washed with buffer A (15 mM HEPES, 80 mM NaCl, 5 mM KCl, 1.2 mM CaCl2, 0.7 mM MgSO4, 2 g/l glucose, 2.5 mM probenecid), buffer A is added and the plates are loaded with 2.5 μM Fluo-4 and 0.025% Pluronic F127 (Sigma-Aldrich, Taufkirchen, Germany). Thereafter, the cells are washed 2× with buffer A and incubated for 30 minutes with buffer A, which additionally contains 0.05% BSA and 0.05% gelatine, at room temperature and thereafter inserted into the FLIPR for the Ca^2+ measurement.
The Ca^2+-dependent fluorescence is measured here before and after addition of substances (λex=488 nm, λem=540 nm). Quantification is by measurement of the highest fluorescence intensity (FC, fluorescence counts) over time.
The FLIPR protocol consists of 2 additions of substance. Test substances (10 μM) are first pipetted on to the cells and the Ca^2+ inflow is compared with the control (hB1R: Lys-Des-Arg^9-bradykinin >=50 nM; rB1R: Des-Arg^9-bradykinin 10 μM). This gives the figure in % activation based on the Ca^2+ signal after addition of Lys-Des-Arg^9-bradykinin (>=50 nM) or Des-Arg^9-bradykinin (10 μM).
After incubation for 10-20 minutes, Lys-Des-Arg^9-bradykinin (hB1R) or Des-Arg^9-bradykinin (rB1R) in the concentration of the EC80 is applied and the inflow of Ca^2+ is likewise determined. Antagonists lead to a suppression of the Ca^2+ inflow. % inhibition compared with the maximum achievable inhibition is calculated. […]

In experiment [2] the target is T2, bradykinin 1 receptor (B1R) of the rat (Rattus norvegicus, UniProt P97583).
T2 construct: expressed in transfected cells
T2 sequence (P97583 1-337): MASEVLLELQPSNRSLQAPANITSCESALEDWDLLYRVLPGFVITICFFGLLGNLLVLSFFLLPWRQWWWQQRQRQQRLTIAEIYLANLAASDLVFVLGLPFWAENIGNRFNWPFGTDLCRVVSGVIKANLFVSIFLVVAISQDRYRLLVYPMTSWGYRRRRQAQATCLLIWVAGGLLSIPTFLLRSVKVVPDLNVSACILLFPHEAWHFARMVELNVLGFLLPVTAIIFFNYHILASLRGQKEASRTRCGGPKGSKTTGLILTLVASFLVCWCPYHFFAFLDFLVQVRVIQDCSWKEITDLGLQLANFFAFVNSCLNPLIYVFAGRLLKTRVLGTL
Put plainly: FLIPR Ca2+ assay, B1R antagonism, rat. The format is cell-based. The note with it: CHO-K1, 10 μM test substance; CHO K1 cells with rat B1R gene (rB1R cells); Des-Arg9-bradykinin at EC80; % inhibition compared with the maximum achievable inhibition; read-out: B1R antagonism, rat [10 μM] % inhibition. The gist of the method:
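CHO K1 cells stably expressing human or rat B1R, loaded with Fluo-4 and read in FLIPR (ex 488, em 540 nm, peak fluorescence). Test compound 10 μM preincubated 10-20 min, then EC80 agonist added (Lys-Des-Arg9-bradykinin for human, Des-Arg9-bradykinin for rat); % inhibition relative to maximum achievable inhibition.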

A word on the inhibition: it is the change of the read-out against control, counted positive when it falls.

In the case of `COc1cc(C)c(S(=O)(=O)N(C)CCOCC(=O)N2CCC(OCCN3CCCCC3)(c3cccnc3)CC2)c(C)c1` [Example 15, 4-methoxy-N,2,6-trimethyl-N-(2-(2-oxo-2-(4-(2-(piperidin-1-yl)ethoxy)-4-(pyridin-3-yl)piperidin-1-yl)ethoxy)ethyl)-benzenesulfonamide], the inhibition at 10 µM in experiment [1] stood at 104%; in experiment [2], 102%.

With `O=C(CC(NS(=O)(=O)c1ccc2ccccc2c1)c1ccccc1)N1CCC(OCCCN2CCCCC2)(c2cccnc2)CC1` (centres unmarked) [Example 27, N-(3-oxo-1-phenyl-3-(4-(3-(piperidin-1-yl)propoxy)-4-(pyridin-3-yl)piperidin-1-yl)propyl)naphthalene-2-sulfonamide], the inhibition at 10 µM in experiment [1] came to 83%; in experiment [2], 101%.

In the case of `O=C(CC(NS(=O)(=O)c1ccc2ccccc2c1)c1ccccc1)N1CCC(OCCCN2CCCC2)(c2cccnc2)CC1` (centres unmarked) [Example 44, N-(3-oxo-1-phenyl-3-(4-(pyridin-3-yl)-4-(3-(pyrrolidin-1-yl)propoxy)piperidin-1-yl)propyl)naphthalene-2-sulfonamide], the inhibition at 10 µM was 95% in experiment [1] and 102% in experiment [2].

Regarding `COc1cc(C)c(S(=O)(=O)N2CCCC[C@H]2COCC(=O)N2CCC(OCCN3CCCC3)(c3cccc(C(F)(F)F)c3)CC2)c(C)c1` [Example 54, 2-[[(2S)-1-[(4-methoxy-2,6-dimethyl-phenyl)sulfonyl]-piperidin-2-yl]-methoxy]-1-[4-(2-pyrrolidin-1-yl-ethoxy)-4-[3-(trifluoromethyl)phenyl]-piperidin-1-yl]-ethanone], the inhibition at 10 µM in experiment [1] turned out to be 99%; in experiment [2], 96%.

As to `COc1cc(C)c(S(=O)(=O)N2CCCC[C@H]2COCC(=O)N2CCC(OCCn3ccnc3)(c3cccnc3)CC2)c(C)c1` [Example 60, 1-[4-[2-(1H-imidazol-1-yl)-ethoxy]-4-pyridin-3-yl-piperidin-1-yl]-2-[[(2S)-1-[(4-methoxy-2,6-dimethyl-phenyl)sulfonyl]-piperidin-2-yl]-methoxy]-ethanone], the inhibition at 10 µM in experiment [1] was found to be 100%; in experiment [2], 102%.

Take `COc1cc(C)c(S(=O)(=O)N2CCCCC2COCC(=O)N2CCC(OCCCN3CCCC3)(c3cccnc3)CC2)c(C)c1` (centres unmarked) [Example 40, 2-((1-(4-methoxy-2,6-dimethylphenylsulfonyl)piperidin-2-yl)methoxy)-1-(4-(pyridin-3-yl)-4-(3-(pyrrolidin-1-yl)propoxy)piperidin-1-yl)ethanone]: the results for the inhibition at 10 µM in experiment [1] and in experiment [2] were 99% and 102%, respectively.

As for `COc1cc(C)c(S(=O)(=O)N2c3ccccc3OCC2COCC(=O)N2CCC(OCCN3CCCC3)(c3cccnc3)CC2)c(C)c1` (centres unmarked) [Example 106, 2-[[4-[(4-methoxy-2,6-dimethyl-phenyl)sulfonyl]-3,4-dihydro-2H-[1,4]benzoxazin-3-yl]-methoxy]-1-[4-pyridin-3-yl-4-(2-pyrrolidin-1-yl-ethoxy)-piperidin-1-yl]-ethanone], the figures for the inhibition at 10 µM in experiment [1] and in experiment [2] were 100% and 101%, respectively.

With `COc1cc(C)c(S(=O)(=O)N(C)CCOCC(=O)N2CCC(OCCN3CCCC3)(c3ccncc3)CC2)c(C)c1C` [Example 115, 4-methoxy-N,2,3,6-tetramethyl-N-[2-[2-oxo-2-[4-pyridin-4-yl-4-(2-pyrrolidin-1-yl-ethoxy)-piperidin-1-yl]-ethoxy]-ethyl]-benzenesulfonic acid amide], the inhibition at 10 µM worked out at 100% in experiment [1] and 102% in experiment [2].

On to `COc1cc(C)c(S(=O)(=O)N(C)CCOCC(=O)N2CCC(OCCCN3CCCCC3)(c3cccnc3)CC2)c(C)c1` [Example 18, 4-methoxy-N,2,6-trimethyl-N-(2-(2-oxo-2-(4-(3-(piperidin-1-yl)propoxy)-4-(pyridin-3-yl)piperidin-1-yl)ethoxy)ethyl)benzenesulfonamide], for which the figures for the inhibition at 10 µM in experiment [1] and in experiment [2] were 102% and 103%, respectively.

Consider `COc1cc(C)c(S(=O)(=O)N2CCCCC2CCCC(=O)N2CCC(OCCN3CCCC3)(c3ccncc3)CC2)c(C)c1` (centres unmarked) [Example 90, 4-[1-[(4-methoxy-2,6-dimethyl-phenyl)sulfonyl]-piperidin-2-yl]-1-[4-pyridin-4-yl-4-(2-pyrrolidin-1-yl-ethoxy)-piperidin-1-yl]-butan-1-one], for which the inhibition at 10 µM was determined as 100% in experiment [1] and 102% in experiment [2].

`CN1CCN(CCOC2(c3cccnc3)CCN(C(=O)CC3CCCCN3S(=O)(=O)c3cccc(C(F)(F)F)c3)CC2)CC1` (centres unmarked) [Example 30, 1-(4-(2-(4-methylpiperazin-1-yl)ethoxy)-4-(pyridin-3-yl)piperidin-1-yl)-2-(1-(3-(trifluoromethyl)phenylsulfonyl)piperidin-2-yl)ethanone]: the inhibition at 10 µM in experiment [1] turned out to be 31%; in experiment [2], 18%.

Regarding `Cc1cccc(Cl)c1S(=O)(=O)N1CCCCC1CCCC(=O)N1CCC(OCCN2CCCC2)(c2cccnc2)CC1` (centres unmarked) [Example 9, 4-(1-(2-chloro-6-methylphenylsulfonyl)piperidin-2-yl)-1-(4-(pyridin-3-yl)-4-(2-(pyrrolidin-1-yl)ethoxy)piperidin-1-yl)butan-1-one], the figures for the inhibition at 10 µM in experiment [1] and in experiment [2] were 100% and 102%, respectively.

In the case of `O=C(COCC1CCc2ccccc2N1S(=O)(=O)c1ccc(Cl)c(Cl)c1)N1CCC(OCCCN2CCCCC2)(c2cccnc2)CC1` (centres unmarked) [Example 19, 2-((1-(3,4-dichlorophenylsulfonyl)-1,2,3,4-tetrahydroquinolin-2-yl)methoxy)-1-(4-(3-(piperidin-1-yl)propoxy)-4-(pyridin-3-yl)piperidin-1-yl)ethanone], the inhibition at 10 µM was found to be 103% in experiment [1] and 94% in experiment [2].
